# Assay results taken from ChEMBL document CHEMBL1144621, “Pharmacophore modeling and in silico screening for new KDR kinase inhibitors” (Bioorg Med Chem Lett, 2007).
# Molecular target: Vascular endothelial growth factor receptor 2 (Homo sapiens, UniProt P35968)
# Sequence (P35968 whole entry): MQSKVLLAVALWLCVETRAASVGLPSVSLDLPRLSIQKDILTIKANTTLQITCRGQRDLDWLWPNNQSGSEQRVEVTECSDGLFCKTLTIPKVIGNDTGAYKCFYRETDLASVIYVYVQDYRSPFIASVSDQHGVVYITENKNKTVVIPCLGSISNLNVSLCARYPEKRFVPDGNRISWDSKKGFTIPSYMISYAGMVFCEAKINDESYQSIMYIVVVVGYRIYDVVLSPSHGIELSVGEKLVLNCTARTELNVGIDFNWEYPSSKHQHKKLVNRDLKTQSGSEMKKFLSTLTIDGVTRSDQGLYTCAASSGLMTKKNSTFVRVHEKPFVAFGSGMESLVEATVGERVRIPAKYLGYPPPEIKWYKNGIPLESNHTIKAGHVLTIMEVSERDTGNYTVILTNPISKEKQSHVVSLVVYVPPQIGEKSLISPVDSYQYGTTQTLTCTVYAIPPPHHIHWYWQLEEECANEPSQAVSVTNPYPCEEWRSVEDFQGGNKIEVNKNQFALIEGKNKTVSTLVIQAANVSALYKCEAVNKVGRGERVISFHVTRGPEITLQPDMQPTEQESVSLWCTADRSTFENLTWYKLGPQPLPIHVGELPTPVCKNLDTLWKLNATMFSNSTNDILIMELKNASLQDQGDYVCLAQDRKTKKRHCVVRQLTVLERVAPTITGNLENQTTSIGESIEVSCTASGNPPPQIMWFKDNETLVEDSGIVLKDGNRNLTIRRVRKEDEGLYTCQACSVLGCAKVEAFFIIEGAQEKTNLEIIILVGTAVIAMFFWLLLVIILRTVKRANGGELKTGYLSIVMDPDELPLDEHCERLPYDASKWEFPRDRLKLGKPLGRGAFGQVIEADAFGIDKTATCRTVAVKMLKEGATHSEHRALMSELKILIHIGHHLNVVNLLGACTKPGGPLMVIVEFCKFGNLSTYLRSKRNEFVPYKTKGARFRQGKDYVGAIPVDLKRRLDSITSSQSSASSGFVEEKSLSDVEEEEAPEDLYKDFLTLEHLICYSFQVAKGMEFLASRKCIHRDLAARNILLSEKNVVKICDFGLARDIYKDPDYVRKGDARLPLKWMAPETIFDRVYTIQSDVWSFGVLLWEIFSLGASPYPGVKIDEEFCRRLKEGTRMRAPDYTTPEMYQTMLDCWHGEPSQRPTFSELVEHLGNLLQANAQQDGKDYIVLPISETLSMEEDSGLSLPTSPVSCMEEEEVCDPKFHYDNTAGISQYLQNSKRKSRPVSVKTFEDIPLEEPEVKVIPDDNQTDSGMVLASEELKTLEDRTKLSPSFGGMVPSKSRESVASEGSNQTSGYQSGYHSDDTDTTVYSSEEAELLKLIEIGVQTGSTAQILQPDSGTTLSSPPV
row,IC50,SMILES
1,15.4 µM,O=C1Nc2ccccc2/C1=C\c1sccc1Br
2,20 µM,Cn1cccc1/C=C1/C(=O)Nc2ccccc21
3,31 µM,Cc1cccc2c1/C(=C\c1ccc[nH]1)C(=O)N2
